Assay [1] concerns the target T1, Scaffold protein ILK (Homo sapiens) (UniProt Q13418).
T1 sequence (whole entry): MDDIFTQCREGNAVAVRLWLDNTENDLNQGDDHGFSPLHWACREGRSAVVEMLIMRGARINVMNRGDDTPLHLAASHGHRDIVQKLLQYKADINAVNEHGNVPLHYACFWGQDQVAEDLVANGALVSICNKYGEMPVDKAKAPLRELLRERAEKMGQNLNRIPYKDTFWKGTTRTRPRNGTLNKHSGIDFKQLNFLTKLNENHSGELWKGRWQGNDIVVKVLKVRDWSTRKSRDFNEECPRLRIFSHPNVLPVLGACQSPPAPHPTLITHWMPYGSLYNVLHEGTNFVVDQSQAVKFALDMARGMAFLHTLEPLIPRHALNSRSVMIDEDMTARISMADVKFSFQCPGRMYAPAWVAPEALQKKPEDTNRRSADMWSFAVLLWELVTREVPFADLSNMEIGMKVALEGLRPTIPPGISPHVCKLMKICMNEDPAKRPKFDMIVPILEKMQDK
In words: Selectivity interaction (ActivX KiNativ screen (ex vivo kinase selectivity in human PBMCs)) EUB0001619a ILK. Type of assay: cell-based. Conditions: PBMC, at 1 µM.

Assay [2] relates to Epidermal growth factor receptor (Homo sapiens), P00533 [UNDEFINED MUTATION]. In words: Selectivity interaction (KinomeScan (DiscoverX)) EUB0000607a EGFR. To be noted: at 10 µM.
Assay [3] deals with Mitogen-activated protein kinase 4 (Homo sapiens) (UniProt P31152). In words: Selectivity interaction (KinomeScan (DiscoverX)) EUB0000607a MAPK4. To be noted: at 10 µM.
Assay [4] concerns the target Leucine-rich repeat serine/threonine-protein kinase 2 (Homo sapiens, UniProt Q5S007). Kind of assay: Selectivity interaction (ActivX KiNativ screen (kinase selectivity in THP-1 cell lysates)) EUB0000639a LRRK2. It is filed as subcellular. To be noted: lysate.
Assay [5] has as its target Serine/threonine-protein kinase Nek4 (Homo sapiens) (UniProt P51957). Kind of assay: Selectivity interaction (KinomeScan (DiscoverX)) EUB0000045b NEK4.
Assay [6] addresses Non-receptor tyrosine-protein kinase TYK2 (Homo sapiens, UniProt P29597).
For assay [7], the target named is T2, Ephrin type-A receptor 3 (Homo sapiens) (UniProt P29320).
T2 sequence (whole entry): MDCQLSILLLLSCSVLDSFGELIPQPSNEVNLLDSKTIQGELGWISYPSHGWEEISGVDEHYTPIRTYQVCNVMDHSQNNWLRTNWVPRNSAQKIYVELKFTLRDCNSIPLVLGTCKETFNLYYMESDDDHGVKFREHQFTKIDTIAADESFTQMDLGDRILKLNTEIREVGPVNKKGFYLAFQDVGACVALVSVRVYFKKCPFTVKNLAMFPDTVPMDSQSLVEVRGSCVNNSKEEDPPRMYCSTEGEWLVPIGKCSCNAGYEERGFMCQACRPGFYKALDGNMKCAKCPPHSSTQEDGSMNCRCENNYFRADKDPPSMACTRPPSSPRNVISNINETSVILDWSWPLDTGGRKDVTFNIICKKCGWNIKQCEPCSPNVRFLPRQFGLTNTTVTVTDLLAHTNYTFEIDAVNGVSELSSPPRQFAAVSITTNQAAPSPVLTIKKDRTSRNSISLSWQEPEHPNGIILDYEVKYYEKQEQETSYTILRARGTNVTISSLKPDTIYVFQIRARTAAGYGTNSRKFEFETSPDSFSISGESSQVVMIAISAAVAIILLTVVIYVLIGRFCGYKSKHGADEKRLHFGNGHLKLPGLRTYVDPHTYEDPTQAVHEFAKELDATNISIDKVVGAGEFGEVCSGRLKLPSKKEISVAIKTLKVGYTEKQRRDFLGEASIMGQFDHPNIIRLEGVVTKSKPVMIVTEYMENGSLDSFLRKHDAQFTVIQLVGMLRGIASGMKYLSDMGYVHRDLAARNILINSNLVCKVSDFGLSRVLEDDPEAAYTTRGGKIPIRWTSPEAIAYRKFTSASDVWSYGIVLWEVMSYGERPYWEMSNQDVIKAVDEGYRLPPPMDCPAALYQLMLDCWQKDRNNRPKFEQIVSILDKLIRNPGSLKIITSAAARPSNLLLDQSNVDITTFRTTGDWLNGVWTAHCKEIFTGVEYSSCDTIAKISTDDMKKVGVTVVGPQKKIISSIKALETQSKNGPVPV
In words: Selectivity interaction (Upstate Kinase Profiler service (Millipore)) EUB0000056c EPHA3. Conditions: at 1 µM.

Assay [8] addresses Interferon-induced, double-stranded RNA-activated protein kinase (Homo sapiens) (UniProt P19525). In words: Selectivity interaction (KinomeScan (DiscoverX)) EUB0000655a EIF2AK2. To be noted: at 10 µM.
The target of assay [9] is Tyrosine-protein kinase ABL1 (Homo sapiens, UniProt P00519). In words: Selectivity interaction (KinomeScan (DiscoverX)) EUB0001079a ABL1. To be noted: at 1 µM.
Assay [10] concerns the target T3, Serine/threonine-protein kinase BRSK1 (Homo sapiens) (UniProt Q8TDC3).
T3 sequence (whole entry): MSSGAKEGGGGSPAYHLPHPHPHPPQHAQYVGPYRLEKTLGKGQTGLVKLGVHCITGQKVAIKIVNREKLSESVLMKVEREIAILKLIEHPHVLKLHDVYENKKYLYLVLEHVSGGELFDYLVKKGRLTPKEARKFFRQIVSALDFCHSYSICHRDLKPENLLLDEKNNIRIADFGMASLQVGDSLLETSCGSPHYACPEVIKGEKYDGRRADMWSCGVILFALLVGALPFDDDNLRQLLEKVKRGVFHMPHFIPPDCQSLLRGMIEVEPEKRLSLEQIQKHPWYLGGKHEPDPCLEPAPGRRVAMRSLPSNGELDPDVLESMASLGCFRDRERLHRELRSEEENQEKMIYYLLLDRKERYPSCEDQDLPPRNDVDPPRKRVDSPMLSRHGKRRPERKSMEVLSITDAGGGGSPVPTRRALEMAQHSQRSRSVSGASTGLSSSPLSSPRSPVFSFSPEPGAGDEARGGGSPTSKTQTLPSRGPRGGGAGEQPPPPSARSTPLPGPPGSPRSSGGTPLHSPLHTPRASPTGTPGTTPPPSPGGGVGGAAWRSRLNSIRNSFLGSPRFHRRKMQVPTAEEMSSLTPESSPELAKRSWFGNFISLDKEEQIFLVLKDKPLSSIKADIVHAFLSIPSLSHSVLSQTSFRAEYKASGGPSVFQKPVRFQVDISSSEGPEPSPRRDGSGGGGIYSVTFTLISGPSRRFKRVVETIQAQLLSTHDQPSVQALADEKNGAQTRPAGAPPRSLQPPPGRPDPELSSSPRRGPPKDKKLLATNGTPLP
In words: Selectivity interaction (KinomeScan (DiscoverX)) EUB0000229b BRSK1. Conditions: at 10 µM.

pIC50: −log10 of the molar value.

Leucine-rich repeat serine/threonine-protein kinase 2, sequence (Q5S007 whole entry): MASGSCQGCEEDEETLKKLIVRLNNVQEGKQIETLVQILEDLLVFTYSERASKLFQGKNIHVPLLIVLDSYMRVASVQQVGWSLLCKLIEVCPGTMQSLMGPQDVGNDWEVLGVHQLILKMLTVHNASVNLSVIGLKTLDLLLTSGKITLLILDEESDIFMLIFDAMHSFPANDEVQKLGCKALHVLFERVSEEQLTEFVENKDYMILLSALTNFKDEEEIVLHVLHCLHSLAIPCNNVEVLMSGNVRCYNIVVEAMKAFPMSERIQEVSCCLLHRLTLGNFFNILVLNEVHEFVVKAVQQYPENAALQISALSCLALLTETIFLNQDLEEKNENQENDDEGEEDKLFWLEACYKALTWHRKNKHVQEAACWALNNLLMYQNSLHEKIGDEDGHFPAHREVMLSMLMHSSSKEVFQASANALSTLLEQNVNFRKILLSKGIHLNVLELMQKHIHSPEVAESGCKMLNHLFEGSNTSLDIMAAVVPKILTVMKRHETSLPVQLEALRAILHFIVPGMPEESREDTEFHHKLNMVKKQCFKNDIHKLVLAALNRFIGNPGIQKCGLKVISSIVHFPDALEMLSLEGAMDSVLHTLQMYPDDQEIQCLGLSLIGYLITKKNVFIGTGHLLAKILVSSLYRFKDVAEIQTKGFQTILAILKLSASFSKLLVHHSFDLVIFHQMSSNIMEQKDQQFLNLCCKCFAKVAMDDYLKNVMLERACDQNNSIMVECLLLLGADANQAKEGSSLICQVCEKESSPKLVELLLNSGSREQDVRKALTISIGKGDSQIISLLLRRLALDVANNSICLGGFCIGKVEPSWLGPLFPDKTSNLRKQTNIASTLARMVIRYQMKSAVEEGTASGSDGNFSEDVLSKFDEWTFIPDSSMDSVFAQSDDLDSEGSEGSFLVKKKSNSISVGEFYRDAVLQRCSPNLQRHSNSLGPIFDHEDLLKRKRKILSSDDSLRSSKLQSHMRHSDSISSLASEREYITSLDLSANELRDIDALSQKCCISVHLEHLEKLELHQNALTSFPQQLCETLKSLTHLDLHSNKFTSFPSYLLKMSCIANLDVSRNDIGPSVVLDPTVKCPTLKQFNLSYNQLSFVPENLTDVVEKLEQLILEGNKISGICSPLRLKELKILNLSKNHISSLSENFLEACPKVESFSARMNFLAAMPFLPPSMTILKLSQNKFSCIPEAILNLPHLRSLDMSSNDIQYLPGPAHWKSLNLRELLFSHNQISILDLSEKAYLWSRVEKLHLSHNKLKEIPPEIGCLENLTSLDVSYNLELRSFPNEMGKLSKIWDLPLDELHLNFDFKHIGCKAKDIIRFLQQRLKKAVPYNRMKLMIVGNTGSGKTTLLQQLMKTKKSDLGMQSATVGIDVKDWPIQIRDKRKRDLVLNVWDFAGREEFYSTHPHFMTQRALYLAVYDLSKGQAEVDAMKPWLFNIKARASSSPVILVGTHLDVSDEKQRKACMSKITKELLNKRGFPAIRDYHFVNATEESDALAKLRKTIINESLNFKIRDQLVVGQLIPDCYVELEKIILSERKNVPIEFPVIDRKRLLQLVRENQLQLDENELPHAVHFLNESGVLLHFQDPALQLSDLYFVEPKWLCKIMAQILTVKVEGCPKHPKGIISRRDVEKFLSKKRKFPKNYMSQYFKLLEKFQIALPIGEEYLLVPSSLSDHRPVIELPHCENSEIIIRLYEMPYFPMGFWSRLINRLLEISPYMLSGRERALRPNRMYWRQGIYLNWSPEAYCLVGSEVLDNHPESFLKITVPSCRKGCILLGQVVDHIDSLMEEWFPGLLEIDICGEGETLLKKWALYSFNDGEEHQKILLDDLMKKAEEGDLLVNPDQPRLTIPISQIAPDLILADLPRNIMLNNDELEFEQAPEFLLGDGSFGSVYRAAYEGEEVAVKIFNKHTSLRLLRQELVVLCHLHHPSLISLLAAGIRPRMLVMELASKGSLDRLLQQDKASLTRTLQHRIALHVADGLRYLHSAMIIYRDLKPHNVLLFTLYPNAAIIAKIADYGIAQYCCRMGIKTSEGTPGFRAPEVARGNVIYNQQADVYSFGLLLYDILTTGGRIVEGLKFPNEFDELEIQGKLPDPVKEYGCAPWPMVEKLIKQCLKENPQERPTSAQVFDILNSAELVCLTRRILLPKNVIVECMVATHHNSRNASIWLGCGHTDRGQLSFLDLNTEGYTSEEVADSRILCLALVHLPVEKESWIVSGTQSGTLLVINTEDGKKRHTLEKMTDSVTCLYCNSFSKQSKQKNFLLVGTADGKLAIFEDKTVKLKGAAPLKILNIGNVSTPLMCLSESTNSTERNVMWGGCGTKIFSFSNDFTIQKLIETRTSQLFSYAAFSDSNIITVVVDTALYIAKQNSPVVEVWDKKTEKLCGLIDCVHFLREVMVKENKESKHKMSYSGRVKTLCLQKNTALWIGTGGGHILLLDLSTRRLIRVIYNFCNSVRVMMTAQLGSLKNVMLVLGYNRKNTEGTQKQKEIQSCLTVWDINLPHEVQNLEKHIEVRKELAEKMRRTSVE
Serine/threonine-protein kinase Nek4 (Homo sapiens), sequence (P51957 whole entry, looked up): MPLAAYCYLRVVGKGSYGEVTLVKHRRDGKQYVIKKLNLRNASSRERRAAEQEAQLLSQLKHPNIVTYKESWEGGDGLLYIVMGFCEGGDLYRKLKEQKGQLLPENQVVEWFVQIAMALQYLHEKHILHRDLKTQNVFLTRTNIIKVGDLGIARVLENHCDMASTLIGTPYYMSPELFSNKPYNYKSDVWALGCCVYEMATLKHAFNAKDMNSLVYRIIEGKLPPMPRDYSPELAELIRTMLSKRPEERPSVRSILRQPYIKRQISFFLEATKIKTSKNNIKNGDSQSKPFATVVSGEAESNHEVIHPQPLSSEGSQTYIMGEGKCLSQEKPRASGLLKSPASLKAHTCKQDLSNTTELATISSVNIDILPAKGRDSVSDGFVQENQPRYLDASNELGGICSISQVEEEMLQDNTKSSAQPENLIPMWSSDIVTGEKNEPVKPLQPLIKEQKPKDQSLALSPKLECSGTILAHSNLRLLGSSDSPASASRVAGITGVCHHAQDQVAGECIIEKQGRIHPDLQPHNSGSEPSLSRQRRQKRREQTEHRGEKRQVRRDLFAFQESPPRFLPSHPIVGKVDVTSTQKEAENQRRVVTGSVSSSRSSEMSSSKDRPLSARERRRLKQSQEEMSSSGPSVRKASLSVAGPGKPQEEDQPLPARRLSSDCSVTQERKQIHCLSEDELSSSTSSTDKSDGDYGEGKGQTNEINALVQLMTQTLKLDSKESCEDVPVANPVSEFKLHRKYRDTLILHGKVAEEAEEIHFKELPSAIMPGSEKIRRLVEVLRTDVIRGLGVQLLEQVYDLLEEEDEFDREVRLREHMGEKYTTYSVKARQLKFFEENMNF
Non-receptor tyrosine-protein kinase TYK2, sequence (P29597 whole entry): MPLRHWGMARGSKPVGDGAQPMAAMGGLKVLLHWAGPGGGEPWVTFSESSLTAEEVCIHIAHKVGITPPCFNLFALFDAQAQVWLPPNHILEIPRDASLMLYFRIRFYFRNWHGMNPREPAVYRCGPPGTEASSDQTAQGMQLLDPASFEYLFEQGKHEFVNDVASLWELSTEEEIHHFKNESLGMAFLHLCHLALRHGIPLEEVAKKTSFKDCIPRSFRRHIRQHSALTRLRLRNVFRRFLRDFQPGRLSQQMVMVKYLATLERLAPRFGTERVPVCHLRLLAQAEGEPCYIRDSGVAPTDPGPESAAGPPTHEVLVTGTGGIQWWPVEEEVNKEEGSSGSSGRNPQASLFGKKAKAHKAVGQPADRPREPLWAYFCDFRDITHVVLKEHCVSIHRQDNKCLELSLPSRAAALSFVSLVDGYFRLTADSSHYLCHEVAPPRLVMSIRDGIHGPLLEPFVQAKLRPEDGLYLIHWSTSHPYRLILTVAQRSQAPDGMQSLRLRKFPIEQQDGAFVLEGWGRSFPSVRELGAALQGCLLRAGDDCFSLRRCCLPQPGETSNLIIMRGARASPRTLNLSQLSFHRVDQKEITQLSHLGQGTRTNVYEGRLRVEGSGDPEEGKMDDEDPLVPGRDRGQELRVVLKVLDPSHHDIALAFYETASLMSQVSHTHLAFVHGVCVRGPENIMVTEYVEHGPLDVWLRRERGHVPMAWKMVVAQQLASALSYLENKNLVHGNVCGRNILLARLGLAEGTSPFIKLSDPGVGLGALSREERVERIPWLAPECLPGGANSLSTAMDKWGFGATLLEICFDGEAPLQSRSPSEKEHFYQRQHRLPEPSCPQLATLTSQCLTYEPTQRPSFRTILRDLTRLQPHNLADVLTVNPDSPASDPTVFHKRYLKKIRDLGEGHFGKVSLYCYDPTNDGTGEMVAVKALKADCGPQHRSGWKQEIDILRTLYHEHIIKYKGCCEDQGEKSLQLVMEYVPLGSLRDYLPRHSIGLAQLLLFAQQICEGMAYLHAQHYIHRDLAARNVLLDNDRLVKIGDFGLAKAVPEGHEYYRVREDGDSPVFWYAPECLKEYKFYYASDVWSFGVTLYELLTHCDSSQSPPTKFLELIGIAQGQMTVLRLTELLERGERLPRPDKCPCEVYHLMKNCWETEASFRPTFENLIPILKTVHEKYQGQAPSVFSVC
Interferon-induced, double-stranded RNA-activated protein kinase (Homo sapiens), sequence (P19525 whole entry): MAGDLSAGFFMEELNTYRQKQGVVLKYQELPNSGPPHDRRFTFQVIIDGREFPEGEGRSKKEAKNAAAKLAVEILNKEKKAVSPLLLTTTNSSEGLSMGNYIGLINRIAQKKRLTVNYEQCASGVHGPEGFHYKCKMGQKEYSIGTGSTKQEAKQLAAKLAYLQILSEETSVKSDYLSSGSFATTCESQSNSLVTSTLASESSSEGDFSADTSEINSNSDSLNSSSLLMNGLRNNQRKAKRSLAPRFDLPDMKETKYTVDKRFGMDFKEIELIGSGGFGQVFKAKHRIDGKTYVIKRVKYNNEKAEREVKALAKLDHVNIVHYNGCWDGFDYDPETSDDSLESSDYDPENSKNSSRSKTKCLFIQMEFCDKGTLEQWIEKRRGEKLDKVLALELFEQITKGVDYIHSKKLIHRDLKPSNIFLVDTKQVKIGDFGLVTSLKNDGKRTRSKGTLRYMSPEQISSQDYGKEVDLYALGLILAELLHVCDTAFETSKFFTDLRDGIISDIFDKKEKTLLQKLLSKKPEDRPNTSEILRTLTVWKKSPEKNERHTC

For the compound `N#Cc1cccc(-c2c[nH]c3ncnc(N4CCOCC4)c23)c1`, the % of inhibition in assay [1] is -32%. On to `CNC(=O)Nc1ccc(-c2nc(N3CC4CCC(C3)O4)c3cnn(C4CCC5(CC4)OCCO5)c3n2)cc1`, for which the % of control in assay [2] was 52%; in assay [3] it was 100%. For `CC[C@@H]1[C@H](F)C(=O)N[C@@H]1COc1nccc2cc(C(N)=O)c(OC)cc12` [ZIMLOVISERTIB], the % of inhibition in assay [4] (at 0.01 µM) is 18.4%; in assay [4] (at 0.04 µM), 1.9%; in assay [4] (at 0.2 µM) it was 22.9%; in [4] (at 1 µM) it was 70.9%; in [4] (at 5 µM) it was 78%.

On to `C=CC(=O)Nc1cc(-n2c(=O)ccc3cnc4ccc(-c5ccc(NS(C)(=O)=O)cc5)cc4c32)ccc1C`, for which the figures for the % of control in assay [5] (at 1 µM) and in [5] (at 10 µM) were 81% and 100%, respectively. For orientation: pIC50 means the negative decadic logarithm of the IC50, by convention in mol/L. Higher therefore signals a small IC50. The compound `CCc1cccc(CC)c1NC(=O)c1nn(C)c2c1CCc1cnc(Nc3ccc(C(=O)NC4CCN(C)CC4)cc3OC(F)(F)F)nc1-2` gave a pIC50 in assay [6] below 5.00. For the compound `Cc1ccc(-c2ccc3c(ccc4sc5c(c43)NC[C@@H](C)NC5=O)n2)cn1`, the % of inhibition in assay [7] was -1%.

`CN(C)CCOc1ccc(-c2nc(-c3ccncc3)c(-c3ccc4c(c3)CC/C4=N\O)[nH]2)cc1` returned a % of control in [8] of 61%.

Take `Nc1cnc(N2CCc3cc(S(=O)(=O)Nc4c(F)cc(Cl)cc4F)cc(N4CCCC4=O)c32)nc1` [TP-020n]: in [9], the % of control worked out at 97%. Regarding `COc1cc(N(C)c2ccnc3ccc(C(F)(F)F)cc23)cc(OC)c1OC`, the % binding in assay [10] is 86%.

Values taken from ChEMBL document CHEMBL5465560, “Selectivity Literature for EUbOPEN Chemogenomic Library” (2024).
